The target of this assay is T1, H. pylori urease (HPU) (Helicobacter pylori, UniProt P69996).
T1 construct: HPU was prepared as previously described; made in house
The assay can be described thus: Inhibition kinetic study (Lineweaver-Burk plots). It is filed as biochemical. The note with it: for Lineweaver-Burk plot raw value (reciprocal velocity): Fig 3A HPU. The procedure: Michaelis constant KM and the maximum velocity vmax values were evaluated by means of Lineweaver—Burk plots, using the initial velocities at different urea concentrations ([…]), in the absence or presence of 1.00, 0.50, and 0.25 mM Pal. The concentrations of HPU and JBU were both 0.25 mg/mL in the assays. The values were obtained by applying nonlinear regression to the Michaelis-Menten equation. All experiments were performed in triplicate.

Where “and” joins values, the source holds several entries; their conditions need not be identical. Equal entries are not always repeated.

T1 sequence (P14916 whole entry): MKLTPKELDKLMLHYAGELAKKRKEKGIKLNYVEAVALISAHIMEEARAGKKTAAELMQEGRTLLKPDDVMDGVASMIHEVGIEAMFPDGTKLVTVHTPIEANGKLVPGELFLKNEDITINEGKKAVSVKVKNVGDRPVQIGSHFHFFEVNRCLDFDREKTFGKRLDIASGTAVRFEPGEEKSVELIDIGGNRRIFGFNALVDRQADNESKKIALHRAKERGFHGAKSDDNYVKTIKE
T1 sequence (P69996 whole entry): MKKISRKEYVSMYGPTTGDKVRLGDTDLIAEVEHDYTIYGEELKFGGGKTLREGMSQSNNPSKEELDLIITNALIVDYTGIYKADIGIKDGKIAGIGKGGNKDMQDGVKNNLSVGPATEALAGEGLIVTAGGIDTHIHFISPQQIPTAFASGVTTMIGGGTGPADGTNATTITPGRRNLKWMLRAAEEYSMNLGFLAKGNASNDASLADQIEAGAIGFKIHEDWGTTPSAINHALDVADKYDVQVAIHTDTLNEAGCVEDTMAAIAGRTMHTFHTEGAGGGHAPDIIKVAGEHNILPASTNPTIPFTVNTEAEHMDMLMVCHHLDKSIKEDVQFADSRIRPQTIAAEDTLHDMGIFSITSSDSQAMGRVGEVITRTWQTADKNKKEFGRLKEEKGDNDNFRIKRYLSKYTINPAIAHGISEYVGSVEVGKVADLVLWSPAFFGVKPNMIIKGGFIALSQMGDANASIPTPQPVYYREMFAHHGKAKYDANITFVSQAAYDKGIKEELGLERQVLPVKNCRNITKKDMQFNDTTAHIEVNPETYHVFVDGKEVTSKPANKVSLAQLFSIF

In the case of `COc1cc2c(cc1OC)-c1cc3ccc(OC)c(OC)c3c[n+]1CC2` [Pal, Palmatine], the “Lineweaver-Burk plot raw value (reciprocal velocity)” value (“Lineweaver-Burk plot raw value” for short) was 3.3428 and 3.026 and 3.128 (Pal=0.25 mM, 1/urea 0.0333333); 3.79 and 3.489 and 3.584 (Pal=0.25 mM, 1/urea 0.0666667); 4.108 and 3.898 and 3.84 (Pal=0.25 mM, 1/urea 0.133333); 4.796 and 4.692 and 4.666 (Pal=0.25 mM, 1/urea 0.266667); 6.008 and 5.574 and 5.658 (Pal=0.25 mM, 1/urea 0.533333); 7.22 and 6.84 and 7.11 (Pal=0.25 mM, 1/urea 1.06667). Also, the “Lineweaver-Burk plot raw value” value reads like this: (Pal=0.50 mM, 1/urea 0.0333333) 6.847 and 6.4288 and 8.753; (Pal=0.50 mM, 1/urea 0.0666667) 7.294 and 6.935 and 7.391; (Pal=0.50 mM, 1/urea 0.133333) 8.5 and 7.307 and 9.1701; (Pal=0.50 mM, 1/urea 0.266667) 11.3701 and 11.0558; (Pal=0.50 mM, 1/urea 0.533333) 13.369 and 12.3993; (Pal=0.50 mM, 1/urea 1.06667) 12.1433 and 18.315 and 12.9786. Moreover, the “Lineweaver-Burk plot raw value” value reads like this: (Pal=1.00 mM, 1/urea 0.0333333) 10.7527 and 9.785 and 8.636; (Pal=1.00 mM, 1/urea 0.0666667) 12.8452 and 10.5708 and 10.7296; (Pal=1.00 mM, 1/urea 0.133333) 12.2775 and 12.7551 and 11.5942; (Pal=1.00 mM, 1/urea 0.266667) 16.5017 and 10.1061 and 12.6342; (Pal=1.00 mM, 1/urea 0.533333) 22.1239 and 12.1729 and 15.3022; (Pal=1.00 mM, 1/urea 1.06667) 26.3505 and 13.2013 and 19.861. In addition, under “HPU, Lineweaver-Burk”, the “type of urease inhibition” value is “noncompetitive”.

Values taken from article PMC5207512, “Inhibition of Helicobacter pylori and Its Associated Urease by Palmatine: Investigation on the Potential Mechanism” (PLoS ONE, 2017).
